PubChem BioAssay (NCI)
“And” between values parts separate entries of the source, which are not always exact repeats. Equal entries are not always repeated.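 Results reflect a 48-hour exposure of cells in 96-well plates to compound at five concentrations. At the GI50, growth is halved. TGI: concentration producing complete growth inhibition.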

Columns and labels:
Test in all cases: inhibition of tumour cell growth, NCI panel, 48 h
A498 renal = tested on: A498 renal
EKVX NSCLC = tested on: EKVX NSCLC
HL-60(TB) leukemia = tested on: HL-60(TB) leukemia
MDA-MB-435 = tested on: MDA-MB-435
OVCAR-4 ovarian = tested on: OVCAR-4 ovarian
PC-3 prostate = tested on: PC-3 prostate
SF-539 CNS = tested on: SF-539 CNS
SN12C renal = tested on: SN12C renal
SNB-19 CNS = tested on: SNB-19 CNS
SR leukemia = tested on: SR leukemia

Row | SMILES | GI50 (A498 renal) | TGI (A498 renal) | GI50 (EKVX NSCLC) | TGI (EKVX NSCLC) | GI50 (HL-60(TB) leukemia) | TGI (HL-60(TB) leukemia) | GI50 (MDA-MB-435) | TGI (MDA-MB-435) | GI50 (OVCAR-4 ovarian) | TGI (OVCAR-4 ovarian) | GI50 (PC-3 prostate) [nM] | TGI (PC-3 prostate) [µM] | GI50 (SF-539 CNS) | TGI (SF-539 CNS) | GI50 (SN12C renal) | TGI (SN12C renal) | GI50 (SNB-19 CNS) | TGI (SNB-19 CNS) | GI50 (SR leukemia) | TGI (SR leukemia) [µM]
1 | CCCCC[C@H]1C/C=C2/C(=O)C=C[C@@H]2C/C=C\CCCC(=O)O[C@@H](CCCCC)C/C=C2/C(=O)C=C[C@@H]2C/C=C\CCCC(=O)O1 | 0.449 µM | 0.863 µM | 0.373 µM | 1.03 µM | 136 nM | 0.704 µM | 0.0959 µM | 0.412 µM | 0.475 µM | 2.67 µM | 285 | 0.806 | 423 nM | 1.09 µM | 0.105 µM | 0.796 µM | 0.318 µM | 0.809 µM | 82.5 nM | 0.52
2 | N#CCCN(CCCN(CCCN(C(=O)Nc1ccccc1)c1ccccc1)C(=O)Nc1ccccc1)C(=O)Nc1ccccc1 |  | > 100 µM | 16.3 µM | > 8.75 µM and 70.5 µM | 5200 nM | > 8.75 µM and 15.6 µM | 34.9 µM | > 100 µM |  | > 100 µM | > 100000 | > 100 | > 100000 nM | > 100 µM | > 100 µM | > 100 µM |  | > 8.75 µM |  | > 8.75
3 | CCC1CN2C(=N1)c1ccccc1-c1cc(Cl)ccc12 (configuration not stated) | 3.01 µM | 12.1 µM | 4.74 µM | 26.6 µM | 1850 nM | 9.34 µM | 4.39 µM | 16.2 µM | 3.97 µM | 28.6 µM | 2820 | 11.8 | 3880 nM | 14.8 µM | 2.97 µM | 17.4 µM | 5.85 µM | 30.5 µM | 1510 nM | 4.53
4 | CNCCCn1c2c(c3ccc([N+](=O)[O-])cc3c1=O)C(=O)c1cc(OC)cnc1-2 | 0.0338 µM | 0.276 µM | 0.273 µM | 5.83 µM | 41.3 nM | 0.921 µM | 0.15 µM | 1.17 µM | 0.173 µM | 10.1 µM | 130 | 1.88 | 50.5 nM | 0.567 µM | 0.0461 µM | 1.2 µM | 0.0394 µM | 2.07 µM | 12.3 nM | 1.75
5 | O=C1c2cccc(NCCN=Cc3cc([N+](=O)[O-])ccc3O)c2C(=O)c2c(NCCN=Cc3cc([N+](=O)[O-])ccc3O)cccc21 | 3.73 µM | 31.6 µM | 16.1 µM | > 100 µM | 38800 nM | > 100 µM | 4.28 µM | > 100 µM | 2.06 µM | > 100 µM | 3250 | > 100 |  |  | 2.45 µM | > 100 µM | 6.95 µM | > 100 µM | 1490 nM | > 100
6 | COc1ccc2c(c1)nnn1c3ncccc3c(N=O)c21 | 1.27 µM and 6.23 µM | 6.26 µM and 22.5 µM | 3.38 µM and 3.82 µM | 25.3 µM and 61.8 µM | 43.3 nM and 359 nM |  | 1.94 µM and 2.05 µM | 9.7 µM and 12.4 µM | 1.29 µM and 3.11 µM | 16.6 µM and > 100 µM | 2050 | 92.7 | 467 nM and 1510 nM | 1.24 µM and 3.18 µM | 1.4 µM and 2.06 µM | 8.1 µM and 9.82 µM | 6.28 µM and 11.8 µM | 16.2 µM and 34.2 µM | 8.99 nM and 24.7 nM | 
7 | O=CN/C=C/c1cccc(O)c1 |  | > 76.8 µM |  | > 96.6 µM |  | > 100 µM |  | > 100 µM |  | > 93.8 µM |  | > 100 |  | > 83 µM |  | > 100 µM |  | > 100 µM |  | > 75.2
8 | CCN(Cc1ccc(F)cc1)c1ccc(CO)c(F)c1 | 0.114 µM | 0.252 µM |  |  | 12800 nM | 37.3 µM | 22.8 µM | > 72.4 µM | 3.93 µM | 27.6 µM | 21600 | 94.6 | 18800 nM | 56.5 µM | 19.5 µM | 99.1 µM | 27.3 µM | > 100 µM | 15100 nM | 45.1
9 | O=S(=O)(Nc1ccc(Br)c(Cl)c1)c1ccc(-c2cnc(C3CC3)o2)cc1 | 0.189 µM | 0.845 µM | 2.07 µM | 21 µM | 303 nM | 4.96 µM | 0.177 µM | 2.45 µM | 2.67 µM | 21.9 µM | 493 | 14.8 | 374 nM | 5.08 µM | 1.27 µM | 16 µM | 0.517 µM | 16.2 µM | 380 nM | > 49.4
10 | O=C(N/C(=C/c1ccc(Cl)cc1Cl)c1nc2ccccc2s1)c1ccccc1 |  |  |  | 41 µM |  | > 100 µM |  | 30.2 µM |  | 33.7 µM |  | 38.9 |  | 31.1 µM |  | 23 µM |  | 41.1 µM |  | > 100
11 | CCOC(=O)c1cc2c(n1Cc1cccc(OC)c1)-c1oncc1CCC2 | 0.881 µM | 17.6 µM |  |  | 1190 nM | > 58.4 µM | 0.153 µM | 0.456 µM | 8.38 µM | > 100 µM | 1670 | > 100 | 1190 nM | 4.68 µM | 6.46 µM | > 100 µM | 25.3 µM | > 100 µM | 301 nM | 26.8
12 | Cc1ccc(-c2nc(C#N)c(S(=O)(=O)n3nc(C)cc3N)o2)cc1 | 16.3 µM | 32.9 µM | 21.8 µM | 55 µM | 2000 nM | 5.42 µM | 10.5 µM | 22.7 µM | 4.26 µM | 20.7 µM | 13800 | 29.8 | 5070 nM | 17.4 µM | 3.65 µM | 13.9 µM | 14.1 µM | 28.4 µM | 2060 nM | 6.91
13 | O=C(O)c1cc2ccc3ccccc3c2oc1=O |  | > 100 µM |  | > 100 µM |  | > 100 µM |  | > 100 µM |  | > 100 µM |  | > 100 |  | > 100 µM |  | > 100 µM |  | > 100 µM |  | > 100
14 | COc1ccc(-c2nc(-c3ccccc3)c(-c3ccccc3)[nH]2)cc1OC1CCCC1 | > 100 µM | > 100 µM |  |  | > 100000 nM | > 100 µM | > 100 µM | > 100 µM | > 100 µM | > 100 µM | > 100000 | > 100 | > 100000 nM | > 100 µM | > 100 µM | > 100 µM | > 100 µM | > 100 µM | 15000 nM | > 100
15 | CCn1cnc(C[C@H](NC(=O)[C@@H](NC(=O)Nc2cc(C(F)(F)F)cc(C(F)(F)F)c2)C(C)C)C(=O)OC)c1 | > 10 µM | > 10 µM |  |  | 6180 nM | > 10 µM | 3.17 µM | > 10 µM | 1.83 µM | 3.54 µM | 1970 | 4.03 | 3360 nM | > 10 µM | 1.73 µM | 3.57 µM | 1.61 µM | 3.19 µM | 2380 nM | 7.86
16 | O=C(Nc1cccc(-n2cc(-c3ccncc3)c(-c3ccc(Cl)c(O)c3)n2)c1)c1ccc(N2CCOCC2)c(C(F)(F)F)c1 | 15.5 µM | > 50 µM |  |  | 3810 nM | > 50 µM | 2.04 µM | > 50 µM | 39.2 µM | > 50 µM | 2150 | > 50 | 1370 nM | 17.3 µM | 22 µM | > 50 µM | 4.11 µM | > 50 µM | 1630 nM | > 50
17 | CCCc1cc(=O)[nH]c(-n2nc(C)cc2C)n1 | 11.7 µM | > 100 µM |  |  | 2040 nM | 20.7 µM | 4.67 µM | 32.4 µM | 4.68 µM | > 100 µM | 4290 | > 100 | 2990 nM | > 100 µM | 4.75 µM | > 100 µM | 4.5 µM | > 100 µM | 3460 nM | > 100
18 | COc1cccc(C2=C(c3c(C)n(C)c4ccccc34)C(=O)NC2=O)c1 | 8.99 µM | > 25 µM |  |  | > 17100 nM | > 25 µM | 7.33 µM | > 25 µM | > 21.5 µM | > 25 µM | 16300 | > 25 | > 25000 nM | > 25 µM | > 25 µM | > 25 µM | > 25 µM | > 25 µM | 11800 nM | > 25
19 | COc1ccc2c(=O)cc(-c3ccncc3)oc2c1OC |  | 49.8 µM |  | > 100 µM |  | 50.6 µM |  | > 100 µM |  | > 100 µM |  | > 100 |  |  |  | > 100 µM |  | > 100 µM |  | 39.4
20 | NC(=O)c1ccccc1Nc1ccc2nnc(-c3ccncc3)n2n1 | 14.2 µM | 27.2 µM |  |  | 14300 nM | 39.6 µM | 7.1 µM | 26.9 µM | 15.1 µM | 30.5 µM | 16200 | 30.3 | 15300 nM | 28.9 µM | 3.69 µM | 18.1 µM | 14.4 µM | 31.8 µM | 2830 nM | 14.6
21 | O=C(Nc1cccc(-n2cc(-c3ccncc3)c(-c3cc(O)cc(Cl)c3)n2)c1)Nc1ccc(Cl)c(C(F)(F)F)c1 | 3.9 µM | 15.5 µM |  |  | 2860 nM | 6.62 µM | 1.78 µM | 3.89 µM | 3.21 µM | 9.23 µM | 2100 | 6.43 | 1970 nM | 4.49 µM | 3.45 µM | 17.2 µM | 3.7 µM | 16.6 µM | 2010 nM | 5.18
